Values quoted from earlier work in patent US6864048B2, “Factorial chemical libraries” (Affymetrix, Inc., priority 1993, dated 2005).

Target: antibody
Details: binding to the antibody; peptide identified by recursive retrosynthesis of a hexapeptide library

- Kd: 30 nM
Substance: DVPYDA
